The values below come from paper PMC9014412 (Journal of medicinal chemistry, 2022).

Assay [1] deals with HDAC3 (Homo sapiens, UniProt O15379). Description: HDAC3 degradation by quantitative western blotting in HCT116 cells. The conditions noted are these: HCT116 cells, 24 h, 0.1, 1 and 10 μM; compared with 1 at 10 μM.
Procedure: (§3) Initially, each PROTAC was tested at 0.1, 1, and 10 μM in HCT116 cells for 24 h; then, cell extracts were prepared and evaluated for HDAC1/2 and 3 degradation by quantitative western blotting.
(§4) This cell line was incubated at 37 °C with 5% CO2.
(§5) HCT116 cells were seeded into 6-well plates (4 × 10^5 cells/well for 24 h, 2 × 10^5 cells/well for 48 h) for 24 h and then treated with DMSO or compounds at the indicated concentrations in fresh medium (5 mL total). After desired treatment time, the cells were harvested and then lysed in lysis buffer (50 mM Tris-HCl, 150 mM NaCl, 0.5% NP-40, 0.5% Triton X-100) supplemented with a protease inhibitor (Sigma, P8340). The suspension was incubated on ice for 30 min and centrifuged (18,000 rcf, 15 min, 4 °C); then, the supernatant was collected, and protein concentrations were quantified via Bradford Assay using Protein Assay Dye Reagent Concentrate (BIO-RAD). […] PageRuler Plus Prestained Ladder was used for size standards. After gel electrophoresis at 140 V for 90 min, the separated proteins were transferred onto a nitrocellulose membrane at 30 V for 60 min. The membranes were probed with primary antibodies (see the Supporting Information) for 60−90 min. Blots were developed with complimentary IRDye-conjugated secondary antibodies, and the bands were visualized using an Odyssey infrared imaging system. Image processing and band intensity quantification were performed using Image Studio Lite.
Assay [2] deals with HDAC1 (Homo sapiens, UniProt Q13547). The experiment in a line: HDAC1 degradation by quantitative western blotting in HCT116 cells. Particulars: HCT116 cells, 24 h, 0.1, 1 and 10 μM; compared with 1 at 10 μM.
HDAC1, sequence (Q13547 whole entry): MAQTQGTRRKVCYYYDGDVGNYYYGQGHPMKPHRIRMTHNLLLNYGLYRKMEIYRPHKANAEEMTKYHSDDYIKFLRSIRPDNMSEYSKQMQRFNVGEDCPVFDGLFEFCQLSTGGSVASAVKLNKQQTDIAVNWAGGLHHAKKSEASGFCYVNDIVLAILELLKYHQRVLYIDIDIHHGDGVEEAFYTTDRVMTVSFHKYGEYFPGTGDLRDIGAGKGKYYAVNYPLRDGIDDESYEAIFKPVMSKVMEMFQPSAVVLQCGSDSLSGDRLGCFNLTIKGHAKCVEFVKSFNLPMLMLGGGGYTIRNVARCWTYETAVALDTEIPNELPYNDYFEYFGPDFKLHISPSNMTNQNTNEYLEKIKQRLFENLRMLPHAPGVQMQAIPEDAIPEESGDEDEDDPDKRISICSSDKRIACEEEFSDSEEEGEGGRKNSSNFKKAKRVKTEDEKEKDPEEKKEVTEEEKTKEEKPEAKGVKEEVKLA
Procedure: as §3, §4, §5
Assay [3] has as its target HDAC2 (Homo sapiens, UniProt Q92769). Description: HDAC2 degradation by quantitative western blotting in HCT116 cells. Particulars: for HDAC2 degradation in initial screen (in words): HCT116 cells, 24 h, 0.1, 1 and 10 μM, compared with 1 at 10 μM.
Procedure: as §3, §4, §5
Assay [4] deals with H3K56ac. Description: Histone H3 Lys 56 acetylation (H3K56ac) western blotting. The class given is cell-based, human. Particulars: HCT116 cells, 24 h, screen at 0.1, 1, 10 μM; relative to DMSO, CI-994 and 1 at 10 μM. From the text: (§1) Supporting Information: Biology
(§2) Representative blots of two independent biological replicates.

For assay [5], the system named is HCT116 cells. The experiment in a line: CellTiter-Glo 2.0 cell viability assay. The class given is cell-based, human. The conditions noted are these: for EC50: Homo sapiens, HCT-116, 48 h. The procedure:
CellTiter-Glo 2.0 Reagent (Promega UK Ltd, G9242) was equilibrated to room temperature and added to the wells in a ratio of 1 volume reagent:5 volumes medium. Background luminescence was determined using medium alone plus reagent. The plates were shaken on an orbital shaker for 2 min to induce cell lysis and then incubated in the dark at room temperature for 10 min to stabilize the luminescent signal. Luminescence was captured on a CLARIOstar plate reader (BMG Labtech Ltd, UK) at 22 °C to give relative luminescence units and analyzed using BMG Labtech software. EC50 values were calculated by nonlinear regression (Hill plot) and log (inhibitor) versus response—variable slopes (four parameters) using GraphPad Prism 9 software. Each compound dose response was repeated as four independent biological replicates (n = 4).

For assay [6], the system named is HCT116 cells. The experiment in a line: Apoptosis flow cytometry assay (sub-G1 population). The conditions noted are these: 10 μM, after 24 h. The class given is cell-based, human. How it is done: HCT116 cells were seeded (5 × 10^5 cells/plate) into 6 cm tissue culture plates for 24 h and then treated with 10 μM compounds (with 0.1% DMSO vehicle) or 0.1% DMSO control in fresh medium (5 mL total). The cells were then exposed to the compounds (10 μM) for 24 or 48 h. To harvest the cells, the medium was transferred from each sample plate to 15 mL centrifuge tubes. Each well was washed with 1 mL of phosphate-buffered saline (PBS) and the PBS was transferred to the corresponding 15 mL centrifuge tube. The plates were trypsinized, 2 mL of medium was added, and the cells and medium were transferred to the corresponding 15 mL centrifuge tubes. The harvested cells were pelleted by centrifugation (200g, 5 min, 4 °C), washed with 1 mL PBS, and then pelleted again by centrifugation (200g, 5 min, 4 °C). The supernatant was discarded, and the pellets resuspended in 1 mL of 70% ethanol (ice-cold) to fix the cells. Samples were stored at 4 °C and analyzed within two weeks. PBS (1 mL) was added to each sample tube containing cells fixed in 70% ethanol. The cells were pelleted by centrifugation (200g, 5 min, 4 °C), and the PBS wash was repeated. The supernatant was discarded, and the pellet was resuspended in 50 μL of RNase A (1 μg/mL, Thermo Scientific, EN0531) and left at room temperature for 10 min to digest contaminating RNA. A total of 500 μL of PI stain (50 μg/mL, Invitrogen, P3566) was added to each tube, and the tubes were incubated in the dark, at room temperature, for 30 min. Results were acquired on a BD FACSCanto II flow cytometer and analyzed using BD FACSdiva software. Sub-G1 population was calculated as a percentage of total cell population. Two independent biological replicates were performed.

For assay [7], the system named is SIN3A. Description: SIN3A protein levels by western blotting. The class given is cell-based, human. The conditions noted are these: HCT116 cells. How it is done: as §1, §2
Figure S6. Representative Western blot of HDAC1/2/3 levels after 24 hours and 48 hours with 1
(JPS004), 7 (JPS014) and 9 (JPS016), and bar graph representation of HDAC1-3, LSD1 and Sin3a
protein levels after 24 hours and 48 hours as the average of three independent biological replicates.
(also on this page, place not known: HDAC1 24hHDAC2 24hHDAC3 24hHDAC1 48hHDAC2 48hHDAC3 %Protein Levels Remaining (Relative to DMSO) %Protein Levels Remaining (Relative to DMSO))

Molecules are shown by their SMILES.

HDAC2, sequence (Q92769 whole entry): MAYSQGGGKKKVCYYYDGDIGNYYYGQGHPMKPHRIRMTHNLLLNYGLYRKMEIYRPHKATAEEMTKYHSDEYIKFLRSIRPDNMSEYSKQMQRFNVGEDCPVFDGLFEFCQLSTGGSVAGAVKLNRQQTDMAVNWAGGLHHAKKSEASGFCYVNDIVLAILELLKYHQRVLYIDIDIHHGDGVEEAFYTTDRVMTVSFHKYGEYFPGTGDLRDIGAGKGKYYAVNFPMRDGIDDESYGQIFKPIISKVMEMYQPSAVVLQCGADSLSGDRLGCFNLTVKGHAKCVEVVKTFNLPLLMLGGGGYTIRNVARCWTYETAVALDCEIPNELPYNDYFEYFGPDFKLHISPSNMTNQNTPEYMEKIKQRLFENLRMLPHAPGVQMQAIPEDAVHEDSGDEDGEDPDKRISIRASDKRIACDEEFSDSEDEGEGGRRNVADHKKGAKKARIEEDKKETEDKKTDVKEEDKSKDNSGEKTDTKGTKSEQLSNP
HDAC3, sequence (O15379 whole entry): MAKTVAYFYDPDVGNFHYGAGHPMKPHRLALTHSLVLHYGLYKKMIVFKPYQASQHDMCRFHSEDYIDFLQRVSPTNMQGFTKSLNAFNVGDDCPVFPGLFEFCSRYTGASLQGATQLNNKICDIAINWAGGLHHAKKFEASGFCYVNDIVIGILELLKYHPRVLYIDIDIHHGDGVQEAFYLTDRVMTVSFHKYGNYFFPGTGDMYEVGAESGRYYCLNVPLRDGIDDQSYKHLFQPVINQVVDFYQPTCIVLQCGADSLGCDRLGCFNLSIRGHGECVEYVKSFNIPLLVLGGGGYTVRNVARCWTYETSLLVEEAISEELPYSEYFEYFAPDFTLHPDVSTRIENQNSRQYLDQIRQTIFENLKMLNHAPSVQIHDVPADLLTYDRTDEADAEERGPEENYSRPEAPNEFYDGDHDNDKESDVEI
HDAC3, sequence (Q9Y618 389-480 partner limits assumed): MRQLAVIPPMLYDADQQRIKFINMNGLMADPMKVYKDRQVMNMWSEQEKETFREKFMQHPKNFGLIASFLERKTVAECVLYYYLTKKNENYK

Turning to `Cc1ncsc1-c1ccc(CNC(=O)[C@@H]2C[C@@H](O)CN2C(=O)[C@@H](NC(=O)COCCOCC(=O)Nc2ccc(C(=O)Nc3ccccc3N)cc2)C(C)(C)C)cc1` [Compound 10, (2S,4R)-1-((S)-2-(2-(2-(2-((4-((2-Aminophenyl)carbamoyl)-phenyl)amino)-2-oxoethoxy)ethoxy)acetamido)-3,3-dimethylbutanoyl)-4-hydroxy-N-(4-(4-methylthiazol-5-yl)benzyl)pyrrolidine-2-carboxamide], the “HDAC3 degradation in initial screen (in words)” value (“HDAC3 degradation” below) in assay [1] is “generally compromised”. Further, the “HDAC1 degradation in initial screen (in words)” value (shortened to “HDAC1 degradation”) in assay [2] was “almost complete loss of HDAC1/2 degradation”. The “HDAC2 degradation in initial screen (in words)” value (“HDAC2 degradation” for short) in assay [3] was “almost complete loss of HDAC1/2 degradation”. Moreover, in assay [4], the “H3K56ac levels (in words)” value is on record as “did not increase H3K56ac levels compared to the dimethyl sulfoxide (DMSO) control”.
With `Cc1ncsc1-c1ccc(CNC(=O)[C@@H]2CC(O)CN2C(=O)[C@@H](NC(=O)COCCOCCOCCOCC(=O)Nc2ccc(C(=O)Nc3ccccc3N)cc2)C(C)(C)C)cc1` (stereo in doubt) [Compound 12, N1-(4-((2-Aminophenyl)carbamoyl)phenyl)-N14-((S)-1-((2S,4S)-4-hydroxy-2-((4-(4-methylthiazol-5-yl)benzyl)carbamoyl)-pyrrolidin-1-yl)-3,3-dimethyl-1-oxobutan-2-yl)-3,6,9,12-tetraoxatetradecanediamide], the “HDAC3 degradation” value in assay [1] is reported as “generally compromised”. Further, in assay [2], the “HDAC1 degradation” value is reported as “almost complete loss of HDAC1/2 degradation”. Further, the “HDAC2 degradation” value in assay [3] is reported as “almost complete loss of HDAC1/2 degradation”. Further, the “H3K56ac levels (in words)” value in assay [4] is recorded as “did not increase H3K56ac levels compared to the dimethyl sulfoxide (DMSO) control”.
For `Cc1ncsc1-c1ccc(CNC(=O)[C@@H]2C[C@@H](O)CN2C(=O)[C@@H](NC(=O)C2(F)CC2)C(C)(C)C)c(OCCCCCCCCCCCC(=O)Nc2ccc(C(=O)Nc3ccccc3N)cc2)c1` [Compound 22, (2S,4R)-N-(2-((12-((4-((2-Aminophenyl)carbamoyl)phenyl)-amino)-12-oxododecyl)oxy)-4-(4-methylthiazol-5-yl)benzyl)-1-((S)-2-(1-fluorocyclopropane-1-carboxamido)-3,3-dimethylbutanoyl)-4-hydroxypyrrolidine-2-carboxamide], the “Effect on cell viability (in words)” value in assay [5] (CellTiter-Glo and flow cytometry) is “little effects on cell viability”. The “HDAC2 degradation” value in assay [3] was “reduction in HDAC1 and HDAC2 degradation compared to 1”. In assay [3] (HCT-116, read-out: Dmax HDAC2), the Dmax was 18%. Further, the “H3K56ac levels (in words)” value in assay [4] is reported as “did not alter H3K56ac levels”.
As for `Cc1ncsc1-c1ccc(CNC(=O)[C@@H]2C[C@@H](O)CN2C(=O)[C@@H](NC(=O)CCCCCCCCOCC(=O)Nc2ccc(C(=O)Nc3ccccc3N)cc2)C(C)(C)C)cc1` [Compound 7, (2S,4R)-1-((S)-2-(9-(2-((4-((2-Aminophenyl)carbamoyl)phenyl)-amino)-2-oxoethoxy)nonanamido)-3,3-dimethylbutanoyl)-4-hydroxy-N-(4-(4-methylthiazol-5-yl)benzyl)pyrrolidine-2-carboxamide], the “Percentage of cells in sub-G1 phase (in words)” value in assay [6] is “highest percentage of cells in the sub-G1 phase”. Further, the “SIN3A levels (abundance)” value in assay [7] (10 μM, after 24 h) turned out to be 50 % abundance. Further, in assay [5], the EC50 was determined as 7.3 ± 0.5 µM. Besides, the “H3K56ac levels (in words)” value in assay [4] was “increased H3K56ac to comparable or greater levels than CI-994 and 1”.
As for `Cc1ncsc1-c1ccc(CNC(=O)[C@@H]2C[C@@H](O)CN2C(=O)[C@@H](NC(=O)CCCCCCCCCCC(=O)Nc2ccc(C(=O)Nc3ccccc3N)cc2)C(C)(C)C)cc1` [Compound 1, N1-(4-((2-Aminophenyl)carbamoyl)phenyl)-N12-((S)-1-((2S,4R)-4-hydroxy-2-((4-(4-methylthiazol-5-yl)benzyl)carbamoyl)pyrrolidin-1-yl)-3,3-dimethyl-1-oxobutan-2-yl)dodecanediamide], the EC50 in assay [5] (48 h) stood at 4.3 ± 0.5 µM.
For `Cc1ncsc1-c1ccc(CNC(=O)[C@@H]2C[C@@H](O)CN2C(=O)[C@@H](NC(=O)CCCN2CCN(CCCC(=O)Nc3ccc(C(=O)Nc4ccccc4N)cc3)CC2)C(C)(C)C)cc1` [Compound 13, (2S,4R)-1-((S)-2-(4-(4-(4-((4-((2-Aminophenyl)carbamoyl)-phenyl)amino)-4-oxobutyl)piperazin-1-yl)butanamido)-3,3-dimethylbutanoyl)-4-hydroxy-N-(4-(4-methylthiazol-5-yl)benzyl)-pyrrolidine-2-carboxamide], the “HDAC3 degradation” value in assay [1] is “generally compromised”. Moreover, in assay [2], the “HDAC1 degradation” value is “almost complete loss of HDAC1/2 degradation”. For the same compound, in assay [3], the “HDAC2 degradation” value was “almost complete loss of HDAC1/2 degradation”. In addition, the “H3K56ac levels (in words)” value in assay [4] is recorded as “did not increase H3K56ac levels compared to the dimethyl sulfoxide (DMSO) control”.
Turning to `Cc1ncsc1-c1ccc(CNC(=O)[C@@H]2C[C@@H](O)CN2C(=O)[C@@H](NC(=O)COCCOCCOCC(=O)Nc2ccc(C(=O)Nc3ccccc3N)cc2)C(C)(C)C)cc1` [Compound 11, (2S,4R)-1-((S)-14-((4-((2-Aminophenyl)carbamoyl)phenyl)-amino)-2-(tert-butyl)-4,14-dioxo-6,9,12-trioxa-3-azatetradecanoyl)-4-hydroxy-N-(4-(4-methylthiazol-5-yl)benzyl)pyrrolidine-2-carboxamide], the “HDAC3 degradation” value in assay [1] is reported as “generally compromised”. For the same compound, in assay [2], the “HDAC1 degradation” value is given as “almost complete loss of HDAC1/2 degradation”. In assay [3], the “HDAC2 degradation” value is recorded as “almost complete loss of HDAC1/2 degradation”. For the same compound, the “H3K56ac levels (in words)” value in assay [4] is “did not increase H3K56ac levels compared to the dimethyl sulfoxide (DMSO) control”.
As for `CC(=O)Nc1ccc(C(=O)Nc2ccccc2N)cc1` [CI-994, reference compound], the “SIN3A levels (in words)” value in assay [7] (especially after 48 h) is reported as “significantly reduced”.
As to `Cc1ncsc1-c1ccc(CNC(=O)[C@@H]2C[C@@H](O)CN2C(=O)[C@@H](NC(=O)COCCCCCCCCCOCC(=O)Nc2ccc(C(=O)Nc3ccc(F)cc3N)cc2)C(C)(C)C)cc1` [Compound 17, (2S,4R)-1-((S)-2-(2-((9-(2-((4-((2-Amino-4-fluorophenyl)-carbamoyl)phenyl)amino)-2-oxoethoxy)nonyl)oxy)acetamido)-3,3-dimethylbutanoyl)-4-hydroxy-N-(4-(4-methylthiazol-5-yl)-benzyl)pyrrolidine-2-carboxamide], in assay [1], the “HDAC3 degradation” value is listed as “HDAC3 degradation was also enhanced at 1 μM compared to 1”. For the same compound, in assay [2], the “HDAC1 degradation” value is recorded as “significant HDAC1 degradation was also still observed at 1 μM”. Moreover, the “H3K56ac levels (in words)” value in assay [4] is “greater than twofold increase in H3K56ac compared to the DMSO control”.
